Assay [1] has as its system Nucleic Acid. The assay can be described thus: Delta Tm (thermal denaturation) in sonicated calf thymus DNA. Also noted: unit not given here. In kind it is nucleic-acid assay. The conditions noted are these: Bos taurus.
Assay [2] in a line: Delta Tm (thermal denaturation) in sonicated poly(dA).poly(dT) homopolymer.
Assay [3] deals with Pneumocystis carinii. The assay can be described thus: Compound was tested for anti-P. carinii activity in vitro. Format: functional.

Experimental findings from ChEMBL document CHEMBL1129146, “Pentamidine congeners. 4. DNA binding affinity and anti-Pneumocystis carinii activity of butamidine analogues” (1996) are described below.

The structures appear in SMILES notation.

`C(=C\COc1ccc(C2=NCCN2)cc1)/COc1ccc(C2=NCCN2)cc1`: the results for the ΔTm in assay [1] and in assay [2] were 7.9 and 20.8, respectively. The compound further returned an Activity in assay [3] of 42 µM.
`COc1cc(Cc2cnc(N)nc2N)cc(OC)c1OC.Cc1cc(NS(=O)(=O)c2ccc(N)cc2)no1` [CO-TRIMOXAZOLE] yielded an Activity in assay [3] of 17 µM.
For `N=C(N)c1ccc(OC/C=C/COc2ccc(C(=N)N)cc2)cc1`, the ΔTm in assay [1] stood at 7.7; in assay [2], 23.3. For the same compound, the Activity in assay [3] was 19 µM.
`C(=C/COc1ccc(C2=NCCN2)cc1)/COc1ccc(C2=NCCN2)cc1`: the ΔTm in assay [1] came to 9.3; in assay [2], 28.9. Moreover, the Activity in assay [3] is 25 µM.
On the same counts, the results for `N=C(N)c1ccc(OCCCCCOc2ccc(C(=N)N)cc2)cc1` [PENTAMIDINE] are 10, 22.9 and 27 µM.
For the compound `N=C(N)c1ccc(OCCCCOc2ccc(C(=N)N)cc2)cc1`, the ΔTm in assay [1] was determined as 8.3; in assay [2], 20.4. For the same compound, the Activity in assay [3] came out at 39 µM.
Take `N=C(N)c1ccc(OC[C@@H](O)[C@@H](O)COc2ccc(C(=N)N)cc2)cc1`: the Activity in assay [3] amounted to 78 µM.
As for `N=C(N)c1ccc(OC/C=C\COc2ccc(C(=N)N)cc2)cc1`, the ΔTm in assay [1] is 11; in assay [2], 31.5. The Activity in assay [3] worked out at 9 µM.
